Several values for one entry are separate records, joined by “and”; a condition that tells them apart may be missing. Identical values can stand only once. Like-named read-outs stand apart in the source and are kept apart here.
Tests used:
[1] = In vivo pharmacokinetic studies in rats; parameters: species or system SD rats; details: for Tmax: read-out: Tmax
Outline: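 Mice and rats (N=3/group) dosed IV at 2 mg/kg in DMSO or PO at 10, 30 or 40 mg/kg in PEG400/Tween 80 50/50; PEG400/Kolliphor HS15/oleic acid 45/45/10 used for one repeat-dose rat study. Repeat dosing in rats was PO 10 mg/kg QD for 5 days. Plasma sampled pre-dose to 24 h post-dose, measured by HPLC.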

Pan02 cancer cells = test: Pan02 subcutaneous syngeneic mouse tumor model (Example 48); format: in vivo, C57BL/6 mice; details: for TGI: 80 mg/kg, IP
Method: (§1) This example describes in vivo studies that evaluated the anti-cancer efficacy of ARI-143, ARI-164, ARI-165, and ARI-186 in syngeneic mouse tumor models. Mice implanted subcutaneously with EMT-6 or Pan02 cancer cells were treated with ARI-143, ARI-164, ARI-165, ARI-186, or vehicle controls, as described below.
(§2) A monolayer culture of tumor cells was maintained in vitro in DMEM or RPMI1640 medium supplemented with 10% fetal bovine serum at 37° C. in an atmosphere of 5% CO2. Cells in exponential growth phase were harvested and quantitated by cell counter before tumor inoculation. The cell lines used are described in the table below.
(§3) Two subcutaneous syngeneic mouse tumor models were generated by innoculating female BALB/C or C57BL/6 mice with cancer cells at their right lower or front flank as detailed in the table below:
(§4) Each mouse was inoculated subcutaneously with tumor cells in 0.1 mL of PBS. Treatments were started when the mean tumor size reached approximately 80-120 mm^3 (around 100 mm^3). The administration of the test compounds and the animal number in each study group are shown in the study design. The date of tumor cell inoculation was denoted as day 0.
(§5) ARI-143, ARI-164, and ARI-165 were dissolved in DMSO at the final concentration of 26.7 mg/ml and stored at room temperature. In Pan02 studies of ARI-164 and ARI-186, both compounds were dissolved in 100% PEG400.
Randomization of animals was started when the mean tumor size reached approximately 90 mm^3 to form the mouse study groups. The randomization was-performed based on “Matched distribution” method using the multi-task method (StudyDirector™ software, version 3.1.399.19)/randomized block design. […]
(§6) After tumor cell inoculation, the mice were checked daily for morbidity and mortality. During routine monitoring, the mice were checked for tumor growth and any effects of the treatment on behavior such as mobility, food and water consumption, body weight gain/loss (body weights were measured twice per week after randomization), eye/hair matting, and any other abnormalities. Mortality and observed clinical signs were recorded for individual mice in detail.
(§7) Tumor volumes were measured twice per week in two dimensions using a caliper, and the volume was expressed in mm^3 using the formula: V=(L×W×W)/2, where V is tumor volume, L is tumor length (the longest tumor dimension) and W is tumor width (the longest tumor dimension perpendicular to L). Dosing as well as tumor and body weight measurements was conducted in a Laminar Flow Cabinet. The body weights and tumor volumes were measured by using StudyDirector™ software (version 3.1.399.19). Dosing Holiday
(§8) Tumor growth inhibition percentage (TGI %) is an indicator for antitumor activity of a drug compound, and expressed as: TGI(%)=100×(1−T/C), where T and C are the mean tumor volume (or weight) of the treated and control groups, respectively, on a given day. Statistical analysis of the difference in mean tumor volume (MTV) among the groups was conducted using the data collected on the day when the MTV of the vehicle group reached the humane endpoints, so that TGI could be derived for all or most mice enrolled in the study.

EMT-6 cancer cells = test: EMT-6 subcutaneous syngeneic mouse tumor model (Example 48); format: in vivo, BALB/C mice; details: 40 mg/kg, IP
Method: as §1, §2, §3, §4, §5
Randomization of animals was started when the mean tumor size reached approximately 90 mm^3 to form the mouse study groups. The randomization was-performed based on “Matched distribution” method using the multi-task method (StudyDirector™ software, version 3.1.399.19)/randomized block design. The mouse groups (ten in each group) were treated with vehicle (DMSO or PEG400) or the test compounds at a dose of 26-80 mg/kg by intraperitoneal (i.p.). injection, QD for 28 days or longer.
as §6, §7, §8

[2] = SD, rat, plasma, iv, 2 mg/kg, rats, single 2 mg/kg IV dose, Mean of 3 animals
[3] = SD, rat, plasma, iv, 2 mg/kg, rats, single 2 mg/kg IV dose, individual animal
[4] = Sprague-Dawley (SD), rat, plasma, iv, 2 mg/kg, rats, single 2 mg/kg IV dose, Mean of 3 animals
[5] = Sprague-Dawley (SD), rat, plasma, po, 10 mg/kg, rats, single 10 mg/kg PO dose, Mean of 3 animals
[6] = Sprague-Dawley (SD), rat, plasma, po, 10 mg/kg, rats, single 10 mg/kg PO dose, individual animal
[7] = rats, single 2 mg/kg IV dose, individual animal, 2 mg/kg
[8] = rats, single 10 mg/kg PO dose, individual animal, 10 mg/kg

Question: What does the source list for CC[C@H](O)c1csc(C(=O)c2c[nH]c3cc(F)ccc23)n1 [ARI-164, (S)-(6-Fluoro-1H-indol-3-yl)(4-(1-hydroxypropyl)thiazol-2-yl)methanone]?
Answer: AUC(0-inf) [1, 2]: 21500 ng·h/mL; clearance [1, 2]: 1.55 mL/min/kg; AUC(0-t) ([1]; SD, rat, plasma, iv, 2 mg/kg, rats, single 2 mg/kg IV dose, Mean of 3 animals, read-out: AUClast): 21400 ng·h/mL; AUC(0-inf) [1, 3]: 20500 ng·h/mL; clearance [1, 3]: 1.63 mL/min/kg; half-life [1, 3]: 3.91 h; AUC(0-t) ([1]; SD, rat, plasma, iv, 2 mg/kg, rats, single 2 mg/kg IV dose, individual animal, read-out: AUClast): 20300 ng·h/mL; Cmax ([1]; SD, rat, plasma, iv, 2 mg/kg, rats, single 2 mg/kg IV dose, individual animal, read-out: Cmax): 42200 ng/mL; Tmax [1, 3]: 0.083 h; MRT inf [1, 4]: 1.69 h; MRT last [1, 4]: 1.63 h; half-life [1, 4]: 2.85 h; Cmax ([1]; Sprague-Dawley (SD), rat, plasma, iv, 2 mg/kg, rats, single 2 mg/kg IV dose, Mean of 3 animals, read-out: Cmax): 40700 ng/mL; Tmax [1, 4]: 0.083 h; Vd ([1]; Sprague-Dawley (SD), rat, plasma, iv, 2 mg/kg, rats, single 2 mg/kg IV dose, Mean of 3 animals, read-out: Vss): 0.155 L/kg; AUC(0-inf) [1, 5]: 2090 ng·h/mL; MRT inf [1, 5]: 2.87 h; MRT last [1, 5]: 2.85 h; half-life [1, 5]: 1.37 h; AUC(0-t) ([1]; Sprague-Dawley (SD), rat, plasma, po, 10 mg/kg, rats, single 10 mg/kg PO dose, Mean of 3 animals, read-out: AUClast): 2090 ng·h/mL; Cmax ([1]; Sprague-Dawley (SD), rat, plasma, po, 10 mg/kg, rats, single 10 mg/kg PO dose, Mean of 3 animals, read-out: Cmax): 511 ng/mL; Tmax [1, 5]: 1.67 h; AUC(0-inf) [1, 6]: 2110 ng·h/mL; MRT inf [1, 6]: 2.65 h; MRT last [1, 6]: 2.64 h; AUC(0-t) ([1]; Sprague-Dawley (SD), rat, plasma, po, 10 mg/kg, rats, single 10 mg/kg PO dose, individual animal, read-out: AUClast): 2110 ng·h/mL; Cmax ([1]; Sprague-Dawley (SD), rat, plasma, po, 10 mg/kg, rats, single 10 mg/kg PO dose, individual animal, read-out: Cmax): 532 ng/mL; Tmax [1, 6]: 2 h; bioavailability ([1]; Sprague-Dawley (SD), rat, plasma, rats, 10 mg/kg PO vs 2 mg/kg IV, read-out: F (Bioavailability)): 1.94%; Cmax/Dose ([1]; male rats, repeat 30 mg/kg oral dose, Day 1, Mean): 16.6 kg·ng/mL/mg; Tlast^a ([1]; male rats, repeat 30 mg/kg oral dose, Day 1, Mean row): 8 h; Cmax/Dose ([1]; male rats, repeat 30 mg/kg oral dose, Day 7, Mean): 0.245 kg·ng/mL/mg; Tlast^a ([1]; male rats, repeat 30 mg/kg oral dose, Day 7, range printed in SD row): (1-4) hr; Cmax at 1 day ([1]; male, Sprague-Dawley (SD), rat, plasma, po, 30 mg/kg, male rats, repeat 30 mg/kg oral dose, Day 1, Mean): 499 ng/mL; Tmax at 1 day ([1]; male, Sprague-Dawley (SD), rat, plasma, po, 30 mg/kg, male rats, repeat 30 mg/kg oral dose, Day 1, Mean row, read-out: Tmax^a): 1 h; AUC(0-t) ([1]; male, Sprague-Dawley (SD), rat, plasma, po, 30 mg/kg, male rats, repeat 30 mg/kg oral dose, Day 1, Mean, read-out: AUCTlast): 1430 ng·h/mL; Cmax at 7 day ([1]; male, Sprague-Dawley (SD), rat, plasma, po, 30 mg/kg, male rats, repeat 30 mg/kg oral dose, Day 7, Mean): 2.93 ng/mL; Tmax at 7 day ([1]; male, Sprague-Dawley (SD), rat, plasma, po, 30 mg/kg, male rats, repeat 30 mg/kg oral dose, Day 7, Mean row): 1 h; decrease in exposure after repeat oral dosing ([1]; rats, 30 mg/kg QD): greater than 90%; AUCinf [1, 7]: 23000 ng·h/mL and 21000 ng·h/mL; AUClast [1, 7]: 23000 ng·h/mL and 21000 ng·h/mL; Cl [1, 7]: 1.45 mL/min/kg and 1.58 mL/min/kg; Cmax [1, 7]: 35400 ng/mL and 44500 ng/mL; MRTinf [1, 7]: 1.53 h and 2.5 h and 1.04 h; MRTlast [1, 7]: 1.38 h and 2.49 h and 1.03 h; T1/2 [1, 7]: 2.39 h and 2.24 h; Vss [1, 7]: 0.149 L/kg and 0.218 L/kg and 0.0986 L/kg; AUCinf [1, 8]: 2660 ng·h/mL and 1500 ng·h/mL; AUClast [1, 8]: 2650 ng·h/mL and 1500 ng·h/mL; Cmax [1, 8]: 646 ng/mL and 354 ng/mL; MRTinf [1, 8]: 3.05 h and 2.92 h; MRTlast [1, 8]: 3.02 h and 2.88 h; T1/2 [1, 8]: 0.56 h and 0.746 h and 2.82 h; TGI (Pan02 cancer cells; study day 0): −0.6%; TGI (Pan02 cancer cells; study day 4): −4.4%; TGI (Pan02 cancer cells; study day 7): −8.4%; TGI (Pan02 cancer cells; study day 11): 26.6%; TGI (Pan02 cancer cells; study day 14): 40.6%; TGI (Pan02 cancer cells; study day 18): 35.3%; tumor inhibition versus vehicle (Pan02 cancer cells; Pan02 tumors, 80 mpk i.p. QD, study day 18): 35%; TGI (EMT-6 cancer cells; study day 6): 0.1%; TGI (EMT-6 cancer cells; study day 10): −10.8%; TGI (EMT-6 cancer cells; study day 13): −2.4%; TGI (EMT-6 cancer cells; study day 17): 20.8%; TGI (EMT-6 cancer cells; study day 20): 41.6%; TGI (EMT-6 cancer cells; study day 24): 54.7%; TGI (EMT-6 cancer cells; study day 27): 54.3%; TGI (EMT-6 cancer cells; study day 31): 56.2%
